Laboratory results as given in patent publication EP1247803A2, “Indolinone compounds suitable for modulation of protein kinases” (Sugen, Inc., priority 1996, dated 1998).

These compounds were tested against T1, FLK-1 receptor (Mus musculus, UniProt P35918) (assay: FLK-1 ELISA (kinase activity of the FLK-1 receptor in FLK-1/NIH3T3 cells, VEGF stimulated)).
T1 construct: expressed in transfected cells; host or cells: NIH3T3 C7#3
T1 sequence (P35918 20-1345): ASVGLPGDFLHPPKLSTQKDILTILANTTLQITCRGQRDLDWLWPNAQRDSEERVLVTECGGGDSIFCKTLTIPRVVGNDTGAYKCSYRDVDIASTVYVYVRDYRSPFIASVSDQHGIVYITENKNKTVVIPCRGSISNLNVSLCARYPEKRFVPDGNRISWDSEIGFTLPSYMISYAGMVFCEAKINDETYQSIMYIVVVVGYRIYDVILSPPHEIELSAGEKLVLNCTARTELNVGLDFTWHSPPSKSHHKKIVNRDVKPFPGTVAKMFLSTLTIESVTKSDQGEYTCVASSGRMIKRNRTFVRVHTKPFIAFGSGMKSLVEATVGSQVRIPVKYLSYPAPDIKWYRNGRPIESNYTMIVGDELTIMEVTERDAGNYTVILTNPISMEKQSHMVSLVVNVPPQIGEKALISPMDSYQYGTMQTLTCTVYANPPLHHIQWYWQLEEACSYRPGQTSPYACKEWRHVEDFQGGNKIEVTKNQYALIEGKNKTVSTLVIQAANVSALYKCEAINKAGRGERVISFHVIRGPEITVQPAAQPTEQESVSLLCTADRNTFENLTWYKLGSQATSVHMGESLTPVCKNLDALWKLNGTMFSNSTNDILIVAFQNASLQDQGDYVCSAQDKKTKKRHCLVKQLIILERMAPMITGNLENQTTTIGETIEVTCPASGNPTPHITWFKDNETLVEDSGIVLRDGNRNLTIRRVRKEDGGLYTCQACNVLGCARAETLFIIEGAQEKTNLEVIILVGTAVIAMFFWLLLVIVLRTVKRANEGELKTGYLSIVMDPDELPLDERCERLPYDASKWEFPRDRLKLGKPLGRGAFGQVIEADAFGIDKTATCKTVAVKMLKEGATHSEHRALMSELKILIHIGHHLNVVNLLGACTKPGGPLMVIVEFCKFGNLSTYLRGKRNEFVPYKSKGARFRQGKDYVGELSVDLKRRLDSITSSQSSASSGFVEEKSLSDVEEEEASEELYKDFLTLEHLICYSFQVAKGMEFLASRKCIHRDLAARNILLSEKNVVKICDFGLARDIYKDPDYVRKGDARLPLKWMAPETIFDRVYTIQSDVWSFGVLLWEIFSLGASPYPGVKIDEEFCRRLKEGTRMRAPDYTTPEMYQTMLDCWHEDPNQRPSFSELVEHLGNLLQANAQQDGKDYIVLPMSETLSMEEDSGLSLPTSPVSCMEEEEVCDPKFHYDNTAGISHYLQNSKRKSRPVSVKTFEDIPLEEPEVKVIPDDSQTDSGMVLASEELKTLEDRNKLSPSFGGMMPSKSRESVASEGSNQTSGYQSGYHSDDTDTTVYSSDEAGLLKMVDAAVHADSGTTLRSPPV
Assay type: cell-based
Set-up: concentration or dose not given beside the values
Procedure, shortened: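 An ELISA using affinity-purified rabbit anti-FLK-1 antiserum on anti-rabbit IgG-coated plates measured VEGF-stimulated FLK-1 kinase activity. NIH3T3 C7#3 cells carrying FLK-1 were serum-starved (0.1% FBS) overnight, then exposed to compound (final 1:200 dilution, 0.5% DMSO) for two hours at 37 °C.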
For `O=C1Nc2c(Br)cc(Br)cc2C1=Cc1ccccn1` [10729/A07], the “Fik Kinase %Inhibition” value was -10.0%. `COc1ccc(C=C2C(=O)Nc3ccc(I)cc32)c2ccccc12` [10729/B03] was tested, and the “Fik Kinase %Inhibition” value was 11.2%. `O=C(O)COc1ccccc1C=C1C(=O)Nc2ccc(S(=O)(=O)Nc3ccc(C(F)(F)F)cc3)cc21` [10728/E10] was tested, and the “Fik Kinase %Inhibition” value was 24.7%. In the case of `CNS(=O)(=O)c1ccc2c(c1)C(=Cc1ccccc1OCC(=O)O)C(=O)N2` [10728/D10], the “Fik Kinase %Inhibition” value is reported as 17.9%. For `COc1cc(N(C)C)ccc1C=C1C(=O)Nc2ccc(CCCl)cc21` [10728/G05], the “Fik Kinase %Inhibition” value was 9.4%. `O=C1Nc2ccc(S(=O)(=O)Nc3ccc(C(F)(F)F)cc3)cc2C1=Cc1cc(C(F)(F)F)ccc1F` [10728/E08] was tested, and the “Fik Kinase %Inhibition” value was 15.2%. `CNS(=O)(=O)c1ccc2c(c1)C(=Cc1ccccn1)C(=O)N2` [10729/D07] was tested, and the “Fik Kinase %Inhibition” value was -15.3%. `COc1cc(C=C2C(=O)Nc3ccc(CCCl)cc32)cc(OC)c1` [10728/G04] was tested, and the “Fik Kinase %Inhibition” value was 21.8%. In the case of `CCOC(=O)c1cc(C=C2C(=O)Nc3ccc(I)cc32)oc1C` [10718/B06], the “Fik Kinase %Inhibition” value is reported as 16.5%. In the case of `O=C1Nc2c(Br)cc(Br)cc2C1=Cc1ccncc1` [10729/A09], the “Fik Kinase %Inhibition” value is reported as 0.4%. For `O=C1Nc2ccc(I)cc2C1=Cc1ccccn1` [10729/B07], the “Fik Kinase %Inhibition” value was -13.4%. For `CNS(=O)(=O)c1ccc2c(c1)C(=Cc1ccc(N3CCCC3)cc1)C(=O)N2` [10729/D10], the “Fik Kinase %Inhibition” value was 4.1%. In the case of `COc1ccc(OC)c(C=C2C(=O)Nc3ccc(S(=O)(=O)Nc4ccc(C(F)(F)F)cc4)cc32)c1` [10728/E02], the “Fik Kinase %Inhibition” value is reported as 5.4%. In the case of `O=C(O)COc1ccccc1C=C1C(=O)Nc2ccc(CCCl)cc21` [10728/G10], the “Fik Kinase %Inhibition” value is reported as 10.4%. `COc1ccc2ccccc2c1C=C1C(=O)Nc2c(Br)cc(Br)cc21` [10729/A02] was tested, and the “Fik Kinase %Inhibition” value was 15.5%. With `O=C1Nc2c(Br)cc(Br)cc2C1=Cc1ccc(N2CCCC2)cc1` [10729/A10] the “Fik Kinase %Inhibition” value was 0.7%. `CSc1ccc(C=C2C(=O)Nc3ccc(I)cc32)cc1` [10729/B04] was tested, and the “Fik Kinase %Inhibition” value was 0.1%. `COc1cc(N(C)C)ccc1C=C1C(=O)Nc2ccc(S(=O)(=O)Nc3ccc(C(F)(F)F)cc3)cc21` [10728/E05] was tested, and the “Fik Kinase %Inhibition” value was 17.4%. With `Cc1c(O)ccc(C=C2C(=O)Nc3c(Br)cc(Br)cc32)c1O` [10718/A09] the “Fik Kinase %Inhibition” value was -18.4%. With `O=C1Nc2ccc(CCCl)cc2C1=Cc1cccc(C(F)(F)F)c1F` [10728/G07] the “Fik Kinase %Inhibition” value was 22.6%. `COc1ccc(C=C2C(=O)Nc3c(Br)cc(Br)cc32)c2ccccc12` [10729/A03] was tested, and the “Fik Kinase %Inhibition” value was 4.7%. With `COc1cc(C=C2C(=O)Nc3ccc(S(=O)(=O)Nc4ccc(C(F)(F)F)cc4)cc32)cc(OC)c1` [10728/E04] the “Fik Kinase %Inhibition” value was 5.5%. For `O=C1Nc2ccc(CCCl)cc2C1=Cc1cc(C(F)(F)F)ccc1F` [10728/G08], the “Fik Kinase %Inhibition” value was 21.4%. In the case of `O=C1Nc2ccc(CCCl)cc2C1=Cc1c(F)cccc1C(F)(F)F` [10728/G09], the “Fik Kinase %Inhibition” value is reported as 6.8%. With `Cc1c(Br)ccc2c1C(=CC1C=CCCC1)C(=O)N2` (stereo not drawn) [10729/C11] the “Fik Kinase %Inhibition” value was 10.4%. For `Cc1ccsc1C=C1C(=O)Nc2c(Br)cc(Br)cc21` [10729/A05], the “Fik Kinase %Inhibition” value was -17.7%. For `CNS(=O)(=O)c1ccc2c(c1)C(=Cc1c(F)cccc1C(F)(F)F)C(=O)N2` [10728/D09], the “Fik Kinase %Inhibition” value was 10.5%. For `O=C1Nc2ccc(S(=O)(=O)Nc3ccc(C(F)(F)F)cc3)cc2C1=Cc1ccccn1` [10729/E07], the “Fik Kinase %Inhibition” value was 4.1%. With `CNS(=O)(=O)c1ccc2c(c1)C(=Cc1cccc(C(F)(F)F)c1F)C(=O)N2` [10728/D07] the “Fik Kinase %Inhibition” value was 8.1%. For `O=C1Nc2ccc(I)cc2C1=Cc1ccc(N2CCCC2)cc1` [10729/B10], the “Fik Kinase %Inhibition” value was -0.7%. For `Cc1c(Br)ccc2c1C(=Cc1cccc(Oc3ccccc3)c1)C(=O)N2` [10729/C06], the “Fik Kinase %Inhibition” value was 3.8%. `O=C1Nc2ccc(I)cc2C1=Cc1ccc2ccccc2c1O` [10718/B04] was tested, and the “Fik Kinase %Inhibition” value was 11.8%. For `COc1ccc2ccccc2c1C=C1C(=O)Nc2ccc(Br)c(C)c21` [10729/C02], the “Fik Kinase %Inhibition” value was 6.0%. For `CNS(=O)(=O)c1ccc2c(c1)C(=Cc1cc(OC)c3c(c1)OCO3)C(=O)N2` [10728/D11], the “Fik Kinase %Inhibition” value was 15.9%. In the case of `O=C1Nc2c(Br)cc(Br)cc2C1=CC1C=CCCC1` (stereo not drawn) [10729/A11], the “Fik Kinase %Inhibition” value is reported as 4.9%. With `O=C1Nc2ccc(S(=O)(=O)Nc3ccc(C(F)(F)F)cc3)cc2C1=Cc1c(F)cccc1C(F)(F)F` [10728/E09] the “Fik Kinase %Inhibition” value was 9.0%. In the case of `COc1ccc(C=C2C(=O)Nc3ccc(S(=O)(=O)Nc4ccc(C(F)(F)F)cc4)cc32)c2ccccc12` [10729/E03], the “Fik Kinase %Inhibition” value is reported as 6.9%. With `COc1cccc(OC)c1C=C1C(=O)Nc2ccc(S(=O)(=O)Nc3ccc(C(F)(F)F)cc3)cc21` [10728/E03] the “Fik Kinase %Inhibition” value was 13.2%. `O=C1Nc2ccc(S(=O)(=O)Nc3ccc(C(F)(F)F)cc3)cc2C1=Cc1ccc2c(c1)Cc1ccccc1-2` [10728/E06] was tested, and the “Fik Kinase %Inhibition” value was 6.6%. With `O=C1Nc2c(Br)cc(Br)cc2C1=Cc1ccc([N+](=O)[O-])o1` [10718/A11] the “Fik Kinase %Inhibition” value was 2.7%. In the case of `Cc1ccsc1C=C1C(=O)Nc2ccc(Br)c(C)c21` [10729/C05], the “Fik Kinase %Inhibition” value is reported as 5.8%. For `Cc1ccc(C=C2C(=O)Nc3c(Br)cc(Br)cc32)s1` [10717/A07], the “Fik Kinase %Inhibition” value was -6.4%. In the case of `O=C1Nc2ccc(I)cc2C1=Cc1cccc(Oc2ccccc2)c1` [10729/B06], the “Fik Kinase %Inhibition” value is reported as 2.0%. In the case of `COc1ccc(OC)c(C=C2C(=O)Nc3ccc(CCCl)cc32)c1` [10728/G02], the “Fik Kinase %Inhibition” value is reported as 2.3%. In the case of `O=C1Nc2ccc(I)cc2C1=Cc1ccncc1` [10729/B09], the “Fik Kinase %Inhibition” value is reported as -16.0%. In the case of `CNS(=O)(=O)c1ccc2c(c1)C(=Cc1ccc(OC)c3ccccc13)C(=O)N2` [10729/D03], the “Fik Kinase %Inhibition” value is reported as 15.3%. `CNS(=O)(=O)c1ccc2c(c1)C(=Cc1ccc(SC)cc1)C(=O)N2` [10729/D04] was tested, and the “Fik Kinase %Inhibition” value was -5.7%. With `O=C1Nc2ccc(CCCl)cc2C1=Cc1ccc2c(c1)Cc1ccccc1-2` [10728/G06] the “Fik Kinase %Inhibition” value was 13.5%. For `COc1ccc2ccccc2c1C=C1C(=O)Nc2ccc(I)cc21` [10729/B02], the “Fik Kinase %Inhibition” value was 13.8%. `O=C1Nc2c(Br)cc(Br)cc2C1=Cc1cccc(Oc2ccccc2)c1` [10729/A06] was tested, and the “Fik Kinase %Inhibition” value was -10.9%. In the case of `O=C1Nc2c(Br)cc(Br)cc2C1=Cc1cccnc1` [10729/A08], the “Fik Kinase %Inhibition” value is reported as -13.3%. `COc1ccc(C=C2C(=O)Nc3ccc(Br)c(C)c32)c2ccccc12` [10729/C03] was tested, and the “Fik Kinase %Inhibition” value was 11.0%. `O=C1Nc2ccc(I)cc2C1=Cc1cccnc1` [10729/B08] was tested, and the “Fik Kinase %Inhibition” value was -14.7%. In the case of `O=C1Nc2c(Br)cc(Br)cc2C1=Cc1ccco1` [10718/A10], the “Fik Kinase %Inhibition” value is reported as 23.4%.
